In patent US12298315B2, “Systems and methods to identify and treat subjects at risk for obstetrical complications” (Wayne State University, priority 2014, dated 2025):

Assays:
[1] = cited from earlier work
PIGF/sVEGFR-1 = test: Maternal plasma PIGF/sVEGFR-1 concentration ratio; format: in vivo, human; settings: pravastatin 20 mg once daily since 17+4 weeks, one pregnant subject
Description: (§1) Sample collection and immunoassays. Blood was obtained by venipuncture and collected into tubes containing EDTA. Samples were centrifuged and stored at −70° C. Maternal plasma concentrations of sVEGFR-1, PIGF, and sEng were determined by sensitive and specific immunoassays (R&D Systems). The inter- and intra-assay coefficients of variation (CV) were: 1.4% and 3.9% for sVEGFR-1, 2.3% and 4.6% for sEng, and 6.02% and 4.8%, respectively, for PIGF. The sensitivity of the assays was 16.97 […], 0.08 ng/ml for sEng, and 9.52 […]. The laboratory personnel performing the assays were blinded to the clinical information.
Quantile regression was used to calculate median analyte ratio concentrations (PIGF/sVEGFR-1, PIGF/sEng) conditional upon GA among uncomplicated pregnancies (n=886). MoM values were calculated for both analyte ratios for each subject. MoM cutoffs were calculated based on inspection of receiver operating characteristic (ROC) curves calculated for each outcome (stillbirth, late PE, severe late PE, and SGA without PE). Prognostic logistic regression models were constructed for each outcome, including the MoM cutoff and clinical risk factors. Covariables included in adjusted models were selected based on clinical knowledge. Model reduction was performed additionally based on the plausibility of regression coefficients, association with independent variables and the magnitude of change in the main effect parameter estimates. To account for potential model over-fitting, when van Houwelingen and le Cessie's heuristic shrinkage estimator fell below 0.85 (indicator of instability), bootstrap estimated linear shrinkage factors and Firth's penalized maximum likelihood estimation were used to calculate conservative estimates less likely to be affected by over-fitting.
Statistical Analysis. Proportions and 95% CI or medians and interquartile ranges were calculated for categorical and arithmetic variables. Pearson correlation coefficients were used to characterize bivariate relation among arithmetic variables. Quantile regression models were fitted to estimate expected medians of biochemical analyte concentrations and Doppler velocimetry PI as a function of gestational week at examination for women with uncomplicated term pregnancies. MoM were calculated for each biomarker (biochemical and sonographic) for each subject. […]

sEng = test: Maternal plasma sEng concentration by immunoassay; format: in vivo, human; settings: pravastatin 20 mg once daily since 17+4 weeks, one pregnant subject
Description: as §1
(§2) Sample Collection and Immunoassays. Blood was obtained by venipuncture and collected into tubes containing EDTA at enrollment and every four weeks until the 24th week of gestation, as well as bi-weekly thereafter until delivery. Samples were centrifuged and stored at −70° C. Maternal plasma concentrations of sVEGFR-1, PIGF, and sEng were determined by immunoassays. The inter- and intra-assay coefficients of variation (CV) of the assays were: 1.4% and 3.9% for sVEGFR-1, 2.3% and 4.6% for sEng, and 6.02% and 4.8%, respectively, for PIGF. The sensitivities of the assays were 16.97 […], 0.08 ng/ml for sEng, and 9.52 […]. Laboratory personnel performing the assays were blinded to the clinical information.
(§3) The subject received subcutaneous 5000 units of heparin twice a day, 81 mg aspirin tablet daily, and IVIG 1 mg/kg every four weeks from the beginning of the current pregnancy. At 12 weeks and 2 days gestation, maternal PAPP-A concentration was low (1st percentile). […] However, bilateral UtA notching (mean UtA PI 2.23 (95th percentile)) was noted, and the plasma angiogenic/anti-angiogenic factor ratio concentrations were low. At 13, 15, and 17 weeks of gestation, plasma concentrations of sVEGFR-1 and sEng were extremely high (96th-98th percentile; see Table 9 and FIGS. 8A and 8C)), and those of PIGF were within normal limits (59th-62nd percentile; Table 9, FIG. 8B). The PIGF/sVEGFR-1 concentration ratios were low, in the 4th, 6th, and 10th percentiles, respectively (see FIG. 8D).
(§4) The subject was informed of these findings, of the poor prognosis associated with extremely high plasma sVEGFR-1 concentrations, and of the likelihood that this pregnancy, like their previous one, could be affected by MF. After being counseled extensively about the potential adverse events and issues of safety of pravastatin administration during pregnancy, and informed that there was little evidence from animal experiments that pravastatin could reverse angiogenic/anti-angiogenic factor imbalances, the subject was offered and opted to receive pravastatin 20 milligrams once daily at 17 weeks and 4 days of gestation. At 21 weeks of gestation, the plasma concentrations of sVEGFR-1 decreased to the normal range (56th percentile) while that of PIGF increased to 93rd percentile. Plasma sEng remained high, at the 94th percentile.
(§5) Sample Collection and Immunoassays. Venipuncture was performed serially at regular prenatal visits and admissions to the hospital for all normal and MPFD affected pregnancies. Blood was collected into tubes containing EDTA. Samples were centrifuged and stored at −70° C. until used for assay. Sensitive and specific immunoassays (R&D systems, Minneapolis, MN) were used to determine maternal plasma concentrations of PIGF, sEng, sVEGFR-1 and -2. All immunoassays utilized the quantitative sandwich enzyme immunoassay technique, and their concentrations in maternal plasma were determined by interpolation from the standard curves. The inter- and intra-assay coefficients of variation (CV) obtained in the laboratory were as follows: PIGF, 6.02 and 4.8%, respectively; s-Eng, 2.3 and 4.6%, respectively; sVEGFR-1, 1.4 and 3.9%, respectively; and sVEGFR-2, 2 and 4%, respectively. […]

PIGF = test: Maternal plasma PIGF concentration by immunoassay; format: in vivo, human; settings: pravastatin 20 mg once daily since 17+4 weeks, one pregnant subject
Description: as §1, §2, §3, §4, §5

[2] = cited from earlier work; remark: listed apart in the source
sVEGFR-1 = test: Maternal plasma sVEGFR-1 concentration by immunoassay; format: in vivo, human; settings: pravastatin 20 mg once daily since 17+4 weeks, one pregnant subject
Description: as §1, §2, §3, §4, §5

[3] = dually perfused term human placental lobule

For `CC[C@H](C)C(=O)O[C@H]1C[C@@H](C)C=C2C=C[C@H](C)[C@H](CC[C@@H]3C[C@@H](O)CC(=O)O3)[C@H]21` [lovastatin, Lovastatin], the “Adverse pregnancy outcomes, post marketing surveillance” value ([1]; subjects with an early exposure to these drugs) is given as “has not found any adverse pregnancy outcomes”.

In the case of `CC[C@H](C)C(=O)O[C@H]1C[C@H](O)C=C2C=C[C@H](C)[C@H](CC[C@@H](O)C[C@@H](O)CC(=O)O)[C@H]21` [pravastatin, Pravastatin], the PIGF/sVEGFR-1 concentration ratio (PIGF/sVEGFR-1; GA 19+5 weeks) is reported as 0.07, the “PIGF/sVEGFR-1 ratio, percentile for GA” value (PIGF/sVEGFR-1; GA 19+5 weeks) is reported as “(23) percentile” and the PIGF/sVEGFR-1 concentration ratio (PIGF/sVEGFR-1; GA 21+6 weeks) is reported as 0.34. For the same compound, the “PIGF/sVEGFR-1 ratio, percentile for GA” value (PIGF/sVEGFR-1; GA 21+6 weeks) was “(90) percentile”, the PIGF/sVEGFR-1 concentration ratio (PIGF/sVEGFR-1; GA 25+3 weeks) was 0.27 and the “PIGF/sVEGFR-1 ratio, percentile for GA” value (PIGF/sVEGFR-1; GA 25+3 weeks) was “(51) percentile”. For the same compound, the PIGF/sVEGFR-1 concentration ratio (PIGF/sVEGFR-1; GA 27+4 weeks) was 0.22, the “PIGF/sVEGFR-1 ratio, percentile for GA” value (PIGF/sVEGFR-1; GA 27+4 weeks) was “(34) percentile” and the PIGF/sVEGFR-1 concentration ratio (PIGF/sVEGFR-1; GA 29+4 weeks) was 0.18. The “PIGF/sVEGFR-1 ratio, percentile for GA” value (PIGF/sVEGFR-1; GA 29+4 weeks) was “(25) percentile”, the PIGF/sVEGFR-1 concentration ratio (PIGF/sVEGFR-1; GA 31+4 weeks) was 0.08 and the “PIGF/sVEGFR-1 ratio, percentile for GA” value (PIGF/sVEGFR-1; GA 31+4 weeks) was “(10) percentile”. For the same compound, the PIGF/sVEGFR-1 concentration ratio (PIGF/sVEGFR-1; GA 33+5 weeks) was 0.04, the “PIGF/sVEGFR-1 ratio, percentile for GA” value (PIGF/sVEGFR-1; GA 33+5 weeks) was “(6) percentile” and the “Abnormal pregnancy outcomes following exposure” value ([1]; humans, exposure during pregnancy) was “abnormal pregnancy outcomes were not reported”. The “Plasma concentration of sEng” value (sEng; GA 19+5 weeks) was 13.1 ng/mL, the “Plasma sEng, percentile for GA” value (sEng; GA 19+5 weeks) was “(98) percentile” and the “Plasma concentration of sEng” value (sEng; GA 21+6 weeks) was 8.7 ng/mL. The “Plasma concentration of sEng” value (sEng; GA 25+3 weeks) was 8.8 ng/mL, the “Plasma sEng, percentile for GA” value (sEng; GA 25+3 weeks) was “(94) percentile” and the “Plasma concentration of sEng” value (sEng; GA 27+4 weeks) was 9.9 ng/mL. For the same compound, the “Plasma sEng, percentile for GA” value (sEng; GA 27+4 weeks) was “(95) percentile”, the “Plasma concentration of sEng” value (sEng; GA 29+4 weeks) was 12.7 ng/mL and the “Plasma sEng, percentile for GA” value (sEng; GA 29+4 weeks) was “(97) percentile”. For the same compound, the “Plasma concentration of sEng” value (sEng; GA 31+4 weeks) was 9.6 ng/mL, the “Plasma sEng, percentile for GA” value (sEng; GA 31+4 weeks) was “(85) percentile” and the “Plasma concentration of sEng” value (sEng; GA 33+5 weeks) was 12.7 ng/mL. For the same compound, the “Plasma sEng, percentile for GA” value (sEng; GA 33+5 weeks) was “(85) percentile”, the “Plasma concentration of PIGF” value (PIGF; GA 19+5 weeks) was 306 pg/mL and the “Plasma concentration of PIGF” value (PIGF; GA 21+6 weeks) was 644 pg/mL. The “Plasma concentration of PIGF” value (PIGF; GA 25+3 weeks) was 768 pg/mL, the “Plasma PIGF, percentile for GA” value (PIGF; GA 27+4 weeks) was “(74) percentile” and the “Plasma concentration of PIGF” value (PIGF; GA 27+4 weeks) was 869 pg/mL. For the same compound, the “Plasma PIGF, percentile for GA” value (PIGF; GA 29+4 weeks) was “(65) percentile”, the “Plasma concentration of PIGF” value (PIGF; GA 29+4 weeks) was 821 pg/mL and the “Plasma PIGF, percentile for GA” value (PIGF; GA 31+4 weeks) was “(44) percentile”. For the same compound, the “Plasma concentration of PIGF” value (PIGF; GA 31+4 weeks) was 536 pg/mL, the “Plasma concentration of PIGF” value (PIGF; GA 33+5 weeks) was 528 pg/mL and the “Pravastatin remained in the maternal circuit” value [2, 3] was 68%. The “Pravastatin retained by the placental tissue” value [2, 3] was 14%, the “Pravastatin transferred to the fetal circuit” value [2, 3] was 18% and the “Direction of placental transfer” value ([2]; fetal to maternal versus maternal to fetal compartment) was “higher transfer of pravastatin from the fetal to the maternal compartment than the reverse”. The “Plasma concentration of sVEGFR-1” value (sVEGFR-1; GA 19+5 weeks) was 4148 pg/mL, the “Plasma concentration of sVEGFR-1” value (sVEGFR-1; GA 21+6 weeks) was 1889 pg/mL and the “Plasma concentration of sVEGFR-1” value (sVEGFR-1; GA 25+3 weeks) was 2854 pg/mL. For the same compound, the “Plasma concentration of sVEGFR-1” value (sVEGFR-1; GA 27+4 weeks) was 3881 pg/mL, the “Plasma sVEGFR-1, percentile for GA” value (sVEGFR-1; GA 27+4 weeks) was “(90) percentile” and the “Plasma concentration of sVEGFR-1” value (sVEGFR-1; GA 29+4 weeks) was 4684 pg/mL. The “Plasma sVEGFR-1, percentile for GA” value (sVEGFR-1; GA 29+4 weeks) was “(93) percentile”, the “Plasma concentration of sVEGFR-1” value (sVEGFR-1; GA 31+4 weeks) was 6370 pg/mL and the “Plasma sVEGFR-1, percentile for GA” value (sVEGFR-1; GA 31+4 weeks) was “(97) percentile”. For the same compound, the “Plasma concentration of sVEGFR-1” value (sVEGFR-1; GA 33+5 weeks) was 11202 pg/mL.
